We go through eight compounds from PubChem BioAssay (NCI).

Test systems include A549 NSCLC; CAKI-1 renal; HL-60(TB) leukemia; HT29 colon; LOX IMVI melanoma; M14 melanoma; MCF7 breast; MDA-MB-231 breast; MDA-N; NCI-H23 lung; NCI-H522 lung; OVCAR-8 ovarian; RPMI-8226 leukemia; SR leukemia; U251 CNS; UACC-257 melanoma; MALME-3M melanoma; RXF 393 renal; SF-539 CNS.
Assay in all cases: inhibition of tumour cell growth, NCI panel, 48 h

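96-well plates; 48 h exposure; 5 concentrations. Endpoints by linear interpolation between flanking doses. Not reached: highest tested concentration assigned. TGI is the concentration that stops growth completely.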 Some results are limits rather than exact numbers.

Consider `CN(C(=O)C1=CCC2(CC1)OCCO2)c1ccccc1I`, for which the TGI with A549 NSCLC, in the assay with CAKI-1 renal, in the assay on HL-60(TB) leukemia, in the assay with HT29 colon, with LOX IMVI melanoma and in the assay on M14 melanoma was above 100 µM each time. The TGI with MCF7 breast, with MDA-MB-231 breast, with MDA-N, with NCI-H23 lung, in the assay with NCI-H522 lung and with OVCAR-8 ovarian was above 100 µM throughout. Besides, the TGI in the assay with RPMI-8226 leukemia, in the assay with SR leukemia, in the assay with U251 CNS and in the assay with UACC-257 melanoma was above 100 µM each time.
Turning to `O/N=C1/CC2(N3CCOCC3)C3CC/C(=N\O)C2CC1(Cc1ccccc1)C3` (centres undefined), the TGI with A549 NSCLC, with CAKI-1 renal, in the assay with HL-60(TB) leukemia, with HT29 colon, in the assay on LOX IMVI melanoma and in the assay with M14 melanoma was above 100 µM throughout. In addition, the TGI with MALME-3M melanoma, in the assay with MCF7 breast, with MDA-MB-231 breast, with MDA-N, in the assay on NCI-H23 lung and in the assay with NCI-H522 lung was above 100 µM throughout. In addition, the TGI with OVCAR-8 ovarian, in the assay with RXF 393 renal, with SF-539 CNS, with SR leukemia, with U251 CNS and in the assay with UACC-257 melanoma was above 100 µM in each case.
For `CCOC(OCC)N1C(=O)C2(C(OCC)OCC)CC3C(OC(=O)N3N)c3cccc1c32` (centres undefined), the TGI with A549 NSCLC, in the assay with CAKI-1 renal, in the assay on HL-60(TB) leukemia, in the assay on HT29 colon, in the assay on LOX IMVI melanoma and in the assay on MALME-3M melanoma was above 100 µM throughout. The TGI with MCF7 breast, in the assay with MDA-MB-231 breast, with MDA-N, in the assay on NCI-H23 lung, in the assay with OVCAR-8 ovarian and in the assay with RPMI-8226 leukemia was above 100 µM throughout. Further, the TGI in the assay on RXF 393 renal, in the assay on SF-539 CNS, in the assay on SR leukemia, in the assay on U251 CNS and in the assay with UACC-257 melanoma was above 100 µM in each case.
Consider `O=C1/C(=C/c2ccc(Oc3ccccc3)cc2)N=C(c2ccccc2)N1c1ccc(S(=O)(=O)Nc2nccs2)cc1`, for which the TGI is above 100 µM in the assay with A549 NSCLC; above 100 µM in the assay with CAKI-1 renal; 34.9 µM with HL-60(TB) leukemia; 72.6 µM in the assay on HT29 colon; 70.5 µM with LOX IMVI melanoma; 72.3 µM in the assay on M14 melanoma. Also, the TGI in the assay on MALME-3M melanoma was 86.6 µM; in the assay on MCF7 breast, 38 µM; in the assay with MDA-MB-231 breast, above 100 µM; in the assay with MDA-N, 15.8 µM; in the assay on NCI-H23 lung, above 100 µM; in the assay on RPMI-8226 leukemia, 32.3 µM. The TGI is 93.4 µM in the assay on RXF 393 renal; above 100 µM in the assay with SF-539 CNS; 25 µM in the assay on SR leukemia; above 100 µM in the assay with U251 CNS; 92.5 µM in the assay on UACC-257 melanoma.
`COc1nc2c(c(=O)n1C)N=C(c1ccccc1)[C@H](C(CC(=O)c1ccccc1)c1ccccc1)C(c1ccccc1)N2` (some centres undefined): the TGI in the assay with A549 NSCLC, with CAKI-1 renal, in the assay with HL-60(TB) leukemia, in the assay with HT29 colon, with LOX IMVI melanoma and in the assay with M14 melanoma was above 100 µM in each case. In addition, the TGI with MCF7 breast was above 100 µM; in the assay on MDA-MB-231 breast, 78.7 µM; in the assay on MDA-N it was above 100 µM; with NCI-H23 lung, above 100 µM; with NCI-H522 lung it was above 100 µM; in the assay with OVCAR-8 ovarian it was above 100 µM. Besides, the TGI in the assay with RPMI-8226 leukemia, in the assay with RXF 393 renal, in the assay with SF-539 CNS, with SR leukemia, with U251 CNS and in the assay with UACC-257 melanoma was above 100 µM each time.
On to `CCOC(=O)c1c(C)n([O-])c2cc(Cl)c(Cl)cc2[n+]1=O`, for which the TGI in the assay with A549 NSCLC was 35.6 µM; in the assay with CAKI-1 renal, 53 µM; in the assay with HL-60(TB) leukemia, 24.6 µM; in the assay with HT29 colon it was above 100 µM; with LOX IMVI melanoma, 38.4 µM; in the assay with M14 melanoma, 43.9 µM. The TGI in the assay with MCF7 breast is above 100 µM; in the assay with MDA-MB-231 breast, 51.3 µM; with MDA-N, above 100 µM; in the assay with NCI-H23 lung it was 26.6 µM; with OVCAR-8 ovarian it was 53 µM; with RPMI-8226 leukemia it was 34.9 µM. Besides, the TGI was 50.3 µM with RXF 393 renal; above 100 µM in the assay with SF-539 CNS; 25.8 µM in the assay on SR leukemia; above 100 µM in the assay on U251 CNS; 44.5 µM in the assay with UACC-257 melanoma.
In the case of `O=C1NNC2NC(=O)C3(NN2C1=O)c1ccccc1-c1ccccc13` (centres undefined), the TGI in the assay on A549 NSCLC, with CAKI-1 renal, in the assay on HL-60(TB) leukemia, in the assay with HT29 colon, in the assay on LOX IMVI melanoma and in the assay on M14 melanoma was above 100 µM each time. Also, the TGI with MALME-3M melanoma, with MCF7 breast, in the assay on MDA-MB-231 breast, with MDA-N, in the assay with NCI-H23 lung and in the assay on NCI-H522 lung was above 100 µM each time. The TGI in the assay on OVCAR-8 ovarian, with RXF 393 renal, with SF-539 CNS, with SR leukemia, with U251 CNS and in the assay with UACC-257 melanoma was above 100 µM in each case.
`O=C(O)CCC(N=NNc1ccc(-c2nc3ccccc3[nH]2)cc1)C(=O)O` (centres undefined): the TGI with A549 NSCLC, with CAKI-1 renal, in the assay with HL-60(TB) leukemia, in the assay on HT29 colon, in the assay with LOX IMVI melanoma and with M14 melanoma was above 100 µM each time. The TGI in the assay on MCF7 breast, in the assay on MDA-MB-231 breast, in the assay on MDA-N, in the assay on NCI-H23 lung, in the assay with NCI-H522 lung and in the assay on OVCAR-8 ovarian was above 100 µM throughout. In addition, the TGI in the assay with RPMI-8226 leukemia, in the assay with RXF 393 renal, in the assay on SF-539 CNS, in the assay with SR leukemia, in the assay with U251 CNS and in the assay on UACC-257 melanoma was above 100 µM throughout.
